In patent US8034940B2, “Modulators of glucocorticoid receptor, AP-1, and/or NF-κB activity and use thereof” (Bristol-Myers Squibb Company, priority 2006, dated 2011):
Read-outs that look alike come from different tables or passages of the source.

Tested on: AP-1 induced transcriptional activity
Assay: Cellular Transrepressional Assay (AP-1 luciferase reporter, PMA-activated A549 cells)
Assay type: cell-based
Settings: for AP-1 Max % inh (Cellular Transrepression Assay) / Emax: maximum inhibition; for Emax: A549, 7 h, read-out: AP-1 Max % inh (Cellular Transrepression Assay)
In short: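 Compounds tested from 0.1 nM to 40 μM during a 7 h PMA (10 ng/ml) stimulation of A549 cells stably transfected with 7× AP-1 sites driving luciferase. Repression expressed as % reduction of PMA-induced luminescence; EC50 by curve fitting.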

[1] = Homo sapiens, Cellular Transrepression Assay
[2] = Homo sapiens, A549, Cellular Transrepression Assay

SMILES | EC50 (Cellular Transrepression Assay) [nM] | EC50 [2] [nM] | AP-1 Max % inh (Cellular Transrepression Assay) (Cellular Transrepression Assay) [%] | Emax [1] [%] | EC50 (Homo sapiens, A549, read-out: AP-1 EC50, nM (Cellular Transrepression Assay)) [nM]
CC(C)(C(=O)Nc1nncs1)C1c2ccccc2Oc2cc(OC(=O)NCc3ccc(F)cc3)ccc21 (centres unmarked) [Example 377] | 32.7 |  | 49.10 |  | 
CC(C)(C(=O)Nc1nncs1)C1c2ccccc2Oc2cc(OC(=O)NCCc3ccc(F)cc3)ccc21 (centres unmarked) [Example 381] | 45.2 |  | 52.00 |  | 
CC(C)(C)NC(=O)Oc1ccc2c(c1)Oc1ccccc1C2C(C)(C)C(=O)Nc1nncs1 (centres unmarked) [Example 382] |  | 206 |  | 47.2 | 
COc1ccc(CCNC(=O)Oc2ccc3c(c2)Oc2ccccc2C3C(C)(C)C(=O)Nc2nncs2)cc1 (centres unmarked) [Example 384] | 61.9 |  | 42.30 |  | 
CC(C)(C(=O)Nc1nncs1)C1c2ccccc2Oc2cc(OC(=O)NC3CCCCC3)ccc21 (centres unmarked) [Example 385] | 96.5 |  | 28.99 |  | 
CNC(=O)Oc1ccc2c(c1)Oc1ccccc1C2C(C)(C)C(=O)Nc1nncs1 (centres unmarked) [Example 386] |  |  |  | 34.3 | 89
CCNC(=O)Oc1ccc2c(c1)Oc1ccccc1C2C(C)(C)C(=O)Nc1nncs1 (centres unmarked) [Example 387] |  | 82 |  | 52.5 | 
CCCCNC(=O)Oc1ccc2c(c1)Oc1ccccc1C2C(C)(C)C(=O)Nc1nncs1 (centres unmarked) [Example 388] |  | 34.2 |  | 57.6 | 
CC(C)(C(=O)Nc1nncs1)C1c2ccccc2Oc2cc(OC(=O)NCc3ccccc3)ccc21 (centres unmarked) [Example 389] | 50.5 |  | 55.20 |  | 
CC(C)(C(=O)Nc1nncs1)C1c2ccccc2Oc2cc(OC(=O)NCc3ccco3)ccc21 (centres unmarked) [Example 393] | 53.4 |  | 43.80 |  | 
CC(C)(C(=O)NC#N)[C@H]1c2ccccc2Oc2nc(-c3ccc(C(=O)N4CCCC4)c(F)c3)ccc21 [Example 398] |  | 480 |  | 50 | 
CC(C)(O)c1ccc(-c2ccc3c(n2)Oc2ccccc2[C@@H]3C(C)(C)C(=O)Nc2nncs2)cc1 [Example 404] |  | 22.5 |  | 70.6 | 
CC(C)(C(=O)Nc1nncs1)[C@H]1c2ccccc2Oc2nc(C3=CCN(C(=O)N4CCCC4)CC3)ccc21 [Example 408] |  | 364 |  | 24.1 | 
CC(C)(C(=O)Nc1ncc(C#N)s1)[C@H]1c2ccccc2Oc2nc(-c3ccc(C(=O)N4CCCC4)c(F)c3)ccc21 [Example 410] |  | 53.3 |  | 48.1 | 
CN(C)C(=O)c1nnc(NC(=O)C(C)(C)[C@H]2c3ccccc3Oc3nc(-c4ccc(C(=O)N5CCCC5)c(F)c4)ccc32)s1 [Example 420] |  | 41.9 |  | 42.1 | 
CC(C)(C(=O)Nc1nnc(C(=O)NC2CC2)s1)[C@H]1c2ccccc2Oc2nc(-c3ccc(C(=O)N4CCOCC4)cc3)ccc21 [Example 422] |  | 46.7 |  | 63.5 | 
CSc1nnc(NC(=O)C(C)(C)[C@H]2c3ccccc3Oc3nc(-c4ccc(C(=O)N5CCCC5)c(F)c4)ccc32)s1 [Example 425] |  | 84.4 |  | 49.9 | 
CC(C)(C(=O)Nc1ncc(S(C)(=O)=O)s1)[C@H]1c2ccccc2Oc2nc(-c3ccc(C(=O)N4CCCC4)c(F)c3)ccc21 [Example 426] |  | 117 |  | 31.8 | 
CC(C)(C(=O)Nc1nnc(CF)s1)[C@H]1c2ccccc2Oc2nc(-c3ccc(C(=O)N4CCOCC4)cc3)ccc21 [Example 430] |  | 34.7 |  | 47.2 | 

Now from value to compound, other results behind:

EC50 (Cellular Transrepression Assay) [nM] | EC50 [2] [nM] | SMILES | AP-1 Max % inh (Cellular Transrepression Assay) (Cellular Transrepression Assay) [%] | Emax [1] [%] | EC50 (Homo sapiens, A549, read-out: AP-1 EC50, nM (Cellular Transrepression Assay)) [nM]
74 |  | CC(C)(C(=O)Nc1nncs1)C1c2ccccc2Oc2cc(OC(=O)NCc3ccc(Cl)c(Cl)c3)ccc21 (centres unmarked) [Example 379] | 51.21 |  | 
101 |  | CC(C)(C(=O)Nc1nncs1)C1c2ccccc2Oc2cc(OC(=O)NCCCc3ccccc3)ccc21 (centres unmarked) [Example 380] | 53.58 |  | 
46.3 |  | CCC(C)NC(=O)Oc1ccc2c(c1)Oc1ccccc1C2C(C)(C)C(=O)Nc1nncs1 (centres unmarked) [Example 383] | 41.78 |  | 
42.8 |  | COc1ccc(NC(=O)Oc2ccc3c(c2)Oc2ccccc2C3C(C)(C)C(=O)Nc2nncs2)cc1 (centres unmarked) [Example 390] | 56.63 |  | 
52 |  | COc1ccc(CNC(=O)Oc2ccc3c(c2)Oc2ccccc2C3C(C)(C)C(=O)Nc2nncs2)cc1 (centres unmarked) [Example 391] | 44.08 |  | 
49.7 |  | CC(C)(C(=O)Nc1nncs1)C1c2ccccc2Oc2cc(OC(=O)NCC3CCCCC3)ccc21 (centres unmarked) [Example 392] | 44.82 |  | 
 | 333 | CC(C)(O)c1ccc(-c2ccc3c(n2)Oc2ccccc2[C@@H]3C(C)(C)C(=O)NC#N)cc1 [Example 399] |  | 69.3 | 
 | 778 | CC(C)(C(=O)Nc1nncs1)[C@H]1c2ccccc2Oc2nc(NC(=O)NCCN3CCCC3)ccc21 [Example 401] |  | 35.1 | 
 | 161 | CC(C)(C(=O)Nc1ncc([N+](=O)[O-])s1)[C@H]1c2ccccc2Oc2nc(-c3ccc(C(=O)N4CCCC4)c(F)c3)ccc21 [Example 411] |  | 58.5 | 
 | 67.3 | CCOC(=O)c1nnc(NC(=O)C(C)(C)[C@H]2c3ccccc3Oc3nc(-c4ccc(C(=O)N5CCCC5)c(F)c4)ccc32)s1 [Example 417] |  | 54.1 | 
 | 82.1 | CC(C)(C(=O)Nc1nnc(C(N)=O)s1)[C@H]1c2ccccc2Oc2nc(-c3ccc(C(=O)N4CCCC4)c(F)c3)ccc21 [Example 418] |  | 29.1 | 
 | 71.9 | CNC(=O)c1nnc(NC(=O)C(C)(C)[C@H]2c3ccccc3Oc3nc(-c4ccc(C(=O)N5CCCC5)c(F)c4)ccc32)s1 [Example 419] |  | 46.6 | 
 | 49.8 | CCNC(=O)c1nnc(NC(=O)C(C)(C)[C@H]2c3ccccc3Oc3nc(-c4ccc(C(=O)N5CCCC5)c(F)c4)ccc32)s1 [Example 421] |  | 42.6 | 
 | 84.1 | CC(C)(C(=O)Nc1nnc(C(=O)NC2CC2)s1)[C@H]1c2ccccc2Oc2nc(-c3ccc(C(=O)N4CCCC4)c(F)c3)ccc21 [Example 422] |  | 41.6 | 
 | 51.5 | CNC(=O)c1nnc(NC(=O)C(C)(C)[C@H]2c3ccccc3Oc3nc(-c4ccc(C(=O)N5CCOCC5)cc4)ccc32)s1 [Example 422] |  | 50.5 | 
 | 82 | CC(C)(C(=O)Nc1nnc(CO)s1)[C@H]1c2ccccc2Oc2nc(-c3ccc(C(=O)N4CCCC4)c(F)c3)ccc21 [Example 423] |  | 30.4 | 
 | 150 | CSc1cnc(NC(=O)C(C)(C)[C@H]2c3ccccc3Oc3nc(-c4ccc(C(=O)N5CCCC5)c(F)c4)ccc32)s1 [Example 424] |  | 59.6 | 
 | 188 | C[S+]([O-])c1cnc(NC(=O)C(C)(C)[C@H]2c3ccccc3Oc3nc(-c4ccc(C(=O)N5CCCC5)c(F)c4)ccc32)s1 (some centres unmarked) [Example 427] |  | 25.1 | 
 | 30.3 | CC(C)(C(=O)Nc1nnc(N)s1)[C@H]1c2ccccc2Oc2nc(-c3ccc(C(=O)N4CCCC4)c(F)c3)ccc21 [Example 428] |  | 26.9 | 
 | 67.3 | CN(C)c1nnc(NC(=O)C(C)(C)[C@H]2c3ccccc3Oc3nc(-c4ccc(C(=O)N5CCCC5)c(F)c4)ccc32)s1 [Example 429] |  | 41.8 | 
 | 69 | CC(C)(C(=O)Nc1nnc(CF)s1)[C@H]1c2ccccc2Oc2nc(-c3ccc(C(=O)N4CCCC4)c(F)c3)ccc21 [Example 431] |  | 41.8 | 
